Here are results for six compounds from patent EP4603105A1, “PHARMACEUTICAL COMPOSITION CONTAINING CYCLIC COMPOUND HAVING SELECTIVE KRAS INHIBITORY EFFECT AGAINST HRAS AND NRAS” (CHUGAI SEIYAKU KABUSHIKI KAISHA, priority 2022, dated 2024).

Test [1] addresses GDP-bound NRAS wild-type protein (Homo sapiens, UniProt P01111). Kind of test: Binding to NRAS by surface plasmon resonance (SPR), KD and KD ratio to KRAS. Conditions: ratio of KD value for GDP-bound NRAS wild-type protein to KD value for KRAS (SPR). Summed up: (§1)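 Biotinylated GDP-bound RAS was captured at about 100–300 RU. Running buffer: HBS pH 7.4, 10 mM MgCl2, 10 µM GDP, 1 mM DTT, 0.01% Tween 20, 4% DMSO.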

The target in test [2] is HRAS wild-type protein (Homo sapiens, UniProt P01112). As to the kind of experiment: Binding to HRAS by surface plasmon resonance (SPR), KD and KD ratio to KRAS. Conditions: ratio of KD value for HRAS wild-type protein to KD value for KRAS (SPR). Summed up:
as §1
On the technique in general: Surface plasmon resonance follows binding to a sensor surface in real time, without labels.

Test [3] relates to human lung cancer strain NCI-H441. The class given is cell-based. The gist of the method: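 Step one: dispense the test compound in serial DMSO dilutions. Step three: add the reagent and measure […].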

Chain of GDP-bound NRAS wild-type protein (P01111 whole entry): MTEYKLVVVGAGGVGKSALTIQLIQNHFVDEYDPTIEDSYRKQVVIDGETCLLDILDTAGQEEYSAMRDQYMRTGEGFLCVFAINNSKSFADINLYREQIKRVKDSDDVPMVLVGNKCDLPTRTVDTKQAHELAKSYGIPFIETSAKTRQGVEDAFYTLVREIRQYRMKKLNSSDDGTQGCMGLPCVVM
Chain of HRAS wild-type protein (P01112 whole entry): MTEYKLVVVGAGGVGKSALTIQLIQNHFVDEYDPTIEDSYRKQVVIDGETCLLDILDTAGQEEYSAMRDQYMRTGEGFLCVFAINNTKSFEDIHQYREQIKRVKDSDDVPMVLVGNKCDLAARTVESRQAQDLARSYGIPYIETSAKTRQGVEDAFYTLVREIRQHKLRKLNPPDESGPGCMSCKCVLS

As for `CC[C@H](C)[C@@H]1NC(=O)[C@H](CC2CC2)N(C)C(=O)C[C@@H](C(=O)N(C)C)N(C)C(=O)[C@H](C2CCCC2)N(C)C(=O)C2(CCC2)NC(=O)[C@@H]2CC(F)(F)CN2C(=O)[C@H](CCc2cc(F)c(C(F)(F)F)c(F)c2)NC(=O)CN(C)C(=O)[C@H](Cc2ccc(C(F)(F)F)cc2)N2CC/C=C\C[C@@H](C2=O)N(C)C(=O)CN(C)C1=O` [PP1500], in test [1], the “NRAS /KRAS” value was “A (a compound having 10 or more and less than 20 is denoted as A)”. The “HRAS /KRAS” value in test [2] was “A (a compound having 10 or more and less than 20 is denoted as A)”. In test [3], this compound displayed a half-maximal inhibitory concentration (IC50) of 6.9 nM.
In the case of `CC[C@H](C)[C@@H]1NC(=O)[C@H](CC2CC2)N(C)C(=O)C[C@@H](C(=O)N(C)C)N(C)C(=O)[C@H](C2CCCC2)N(C)C(=O)C2(CC(C)(C)C2)NC(=O)[C@@H]2C[C@@H](F)CN2C(=O)[C@H](CCc2cc(F)c(C(F)(F)F)c(F)c2)NC(=O)CN(C)C(=O)[C@H](Cc2ccc(C(F)(F)F)cc2)N2CC/C=C\C[C@@H](C2=O)N(C)C(=O)CN(C)C1=O` [PP1501], in test [1], the “NRAS /KRAS” value was “A (a compound having 10 or more and less than 20 is denoted as A)”. Moreover, in test [2], the “HRAS /KRAS” value is “A (a compound having 10 or more and less than 20 is denoted as A)”. In test [3], this compound had an IC50 of 1.5 nM.
On to `CC[C@H](C)[C@@H]1NC(=O)[C@H](CC2CCCC2)N(C)C(=O)C[C@@H](C(=O)N(C)C)N(C)C(=O)[C@H](C2CCCC2)N(C)C(=O)C2(CCC2)NC(=O)[C@@H]2C[C@@H](F)CN2C(=O)[C@H](CCc2cc(F)c(C(F)(F)F)c(F)c2)NC(=O)CN(C)C(=O)[C@H](Cc2ccc(C(F)(F)F)cc2)N2CC/C=C\C[C@@H](C2=O)N(C)C(=O)CN(C)C1=O` [PP1502], for which, in test [1], the “NRAS /KRAS” value was “A (a compound having 10 or more and less than 20 is denoted as A)”. Also, the “HRAS /KRAS” value in test [2] was “A (a compound having 10 or more and less than 20 is denoted as A)”. The compound also registered an IC50 in test [3] of 2 nM.
As to `CC[C@H](C)[C@@H]1NC(=O)[C@H](CC2CC2)N(C)C(=O)C[C@@H](C(=O)N2CCCC2)N(C)C(=O)[C@H](C2CCCC2)N(C)C(=O)C2(CCCC2)NC(=O)[C@@H]2C[C@@H](F)CN2C(=O)[C@H](CCc2cc(F)c(C(F)(F)F)c(F)c2)NC(=O)CN(C)C(=O)[C@H](Cc2ccc(C(F)(F)F)cc2)N2CC/C=C\C[C@@H](C2=O)N(C)C(=O)CN(C)C1=O` [PP1503], in test [1], the “NRAS /KRAS” value was “A (a compound having 10 or more and less than 20 is denoted as A)”. For the same compound, the “HRAS /KRAS” value in test [2] is “A (a compound having 10 or more and less than 20 is denoted as A)”. In test [3], this compound gave a concentration for half-maximal inhibition (IC50) of 3.8 nM.
Take `CC[C@H](C)[C@@H]1NC(=O)[C@H](CC2CC2)N(C)C(=O)C[C@@H](C(=O)N(C)C)N(C)C(=O)[C@H](C2CCCC2)N(C)C(=O)C2(CC(C)(C)C2)NC(=O)[C@@H]2C[C@@H](C(F)(F)F)CN2C(=O)[C@H](CCc2cc(F)c(C(F)(F)F)c(F)c2)NC(=O)CN(C)C(=O)[C@H](Cc2ccc(C(F)(F)F)cc2)N2CC/C=C\C[C@@H](C2=O)N(C)C(=O)CN(C)C1=O` [PP1504]: the “NRAS /KRAS” value in test [1] is “A (a compound having 10 or more and less than 20 is denoted as A)”. In addition, the “HRAS /KRAS” value in test [2] is “A (a compound having 10 or more and less than 20 is denoted as A)”. Besides, in test [3], the midpoint of inhibition, the IC50, lay at 38 nM.
In the case of `CC[C@H](C)[C@@H]1NC(=O)[C@H](CC2CCCC2)N(C)C(=O)C[C@@H](C(=O)N(C)C)N(C)C(=O)[C@H](C2CCCC2)N(C)C(=O)C2(CCC2)NC(=O)[C@@H]2C[C@@H](C(F)(F)F)CN2C(=O)[C@H](CCc2cc(F)c(C(F)(F)F)c(F)c2)NC(=O)CN(C)C(=O)[C@H](Cc2ccc(C(F)(F)F)cc2)N2CC/C=C\C[C@@H](C2=O)N(C)C(=O)CN(C)C1=O` [PP1505], the “NRAS /KRAS” value in test [1] is “A (a compound having 10 or more and less than 20 is denoted as A)”. In addition, the “HRAS /KRAS” value in test [2] was “A (a compound having 10 or more and less than 20 is denoted as A)”. In test [3], the concentration for half-maximal inhibition (IC50) amounted to 4 nM.

By IC50 is commonly meant the concentration that inhibits the measured activity by half. Low values mean greater potency, high ones weaker potency.
